Test results published in patent publication US20240158348A1, “HERBICIDAL CYCLIC AMIDES N-SUBSTITUTED WITH A HALOALKYLSULFONYLANILIDE GROUP” (FMC Corporation, priority 2021, published 2024).

Experiments:
Format in all cases: in vivo
[1] = test system: corn (Zea mays); test: Test C preemergence, corn; conditions: 0 is no effect, 100 is complete control
Method in brief: (§1)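 Steps: sow in loam soil blended with sand; treat soil preemergence by directed spray, or treat young plants (2–10 cm, one to two leaves) postemergence; hold in greenhouse 10 or 12 days; rate injury visually relative to untreated controls on a 0–100 scale.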

[2] = test system: kochia (Bassia scoparia); test: Test C preemergence, kochia; conditions: 0 is no effect, 100 is complete control
Method in brief: (§2)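 Pre: soil sprayed at seeding. Post: seedlings treated at 1–2 leaves (2–10 cm). Vehicle non-phytotoxic solvent mix with surfactant; loam–sand medium; greenhouse; visual injury read at 10 or 12 days, scale 0–100.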

[3] = test system: ragweed (common ragweed, Ambrosia artemisiifolia); test: Test C postemergence, ragweed; conditions: for Ragweed plant response rating: visual injury, 0 to 100 scale (0 no effect, 100 complete control); for Plant response rating (0 to 100 scale), Ragweed: 0 is no effect, 100 is complete control
Method in brief: as §2

[4] = test system: barnyardgrass (Echinochloa crusgalli); test: Test D flooded paddy test, barnyardgrass; set-up: key: 0 = no effect, 100 = complete control; conditions: 250 g ai/ha, Flood; applied to paddy water at 2-leaf stage; visual rating after 13 days; scale 0 (no effect) to 100 (complete control)
Method in brief: (§3)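 2-leaf plants; flood 3 cm over soil; cpd into paddy water; depth maintained; greenhouse 13 d; visual rating vs controls, 0 = no effect, 100 = complete control; dash = no result.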

[5] = test system: goosegrass (Eleusine indica); test: Test C preemergence, goosegrass; conditions: 0 is no effect, 100 is complete control
Method in brief: as §1

[6] = test system: foxtail, giant (giant foxtail, Setaria faberi); test: Test C postemergence, giant foxtail; conditions: for Foxtail, Giant plant response rating: 31 g ai/ha Postemergence, visual injury, 0 to 100 scale (0 no effect, 100 complete control); for Plant response rating (0 to 100 scale), Foxtail, Giant: 125 g ai/ha Postemergence, 0 is no effect, 100 is complete control
[7] = test system: kochia (Bassia scoparia); test: Test C postemergence, kochia; conditions: for Kochia plant response rating: 31 g ai/ha Postemergence, visual injury, 0 to 100 scale (0 no effect, 100 complete control); for Plant response rating (0 to 100 scale), Kochia: 125 g ai/ha Postemergence, 0 is no effect, 100 is complete control
Method in brief: as §2

[8] = test system: rice (Oryza sativa); test: Test D flooded paddy test, rice; set-up: key: 0 = no effect, 100 = complete control; conditions: 250 g ai/ha, Flood; applied to paddy water at 2-leaf stage; visual rating after 13 days; scale 0 (no effect) to 100 (complete control)
Method in brief: as §3

[9] = test system: horseweed (Erigeron canadensis); test: Test C postemergence, horseweed; conditions: for Horseweed plant response rating: 31 g ai/ha Postemergence, visual injury, 0 to 100 scale (0 no effect, 100 complete control); for Plant response rating (0 to 100 scale), Horseweed: 125 g ai/ha Postemergence, 0 is no effect, 100 is complete control
Method in brief: as §2

Cc1cc(C)c(N2CCC(OC3CC3)C2=O)cc1NS(=O)(=O)C(F)(F)F (single isomer, unassigned) [Compound 29] was tested, and the “Plant response rating (0 to 100 scale), Corn” value (“Plant response rating … Corn” below) ([1]; 31 g ai/ha Preemergence) was 80, the “Plant response rating … Corn” value ([1]; 125 g ai/ha Preemergence) was 90 and the “Plant response rating (0 to 100 scale), Kochia” value ([2]; 31 g ai/ha Preemergence) was 90. The “Plant response rating (0 to 100 scale), Kochia” value ([2]; 125 g ai/ha Preemergence) was 100, the “Ragweed plant response rating” value ([3]; 31 g ai/ha Postemergence) was 60 and the “Ragweed plant response rating” value ([3]; 125 g ai/ha Postemergence) was 80. For the same compound, the “Plant response rating, Barnyardgrass” value [4] was 95, the “Plant response rating (0 to 100 scale), Goosegrass” value (“Plant response rating … Goosegrass” for short) ([5]; 31 g ai/ha Preemergence) was 100 and the “Plant response rating … Goosegrass” value ([5]; 125 g ai/ha Preemergence) was 100. The “Foxtail, Giant plant response rating” value [6] was 90, the “Plant response rating (0 to 100 scale), Foxtail, Giant” value [6] was 90 and the “Kochia plant response rating” value [7] was 60. For the same compound, the “Plant response rating (0 to 100 scale), Kochia” value [7] was 90 and the “Plant response rating, Rice” value [8] was 85.

In the case of Cc1cc(C)c(N2CCC(OC3CC3)C2=O)cc1NS(=O)(=O)C(F)(F)F (single isomer, unassigned) [Compound 30], the “Plant response rating … Corn” value ([1]; 31 g ai/ha Preemergence) is reported as 90, the “Plant response rating … Corn” value ([1]; 125 g ai/ha Preemergence) is reported as 90 and the “Plant response rating (0 to 100 scale), Kochia” value ([2]; 31 g ai/ha Preemergence) is reported as 90. For the same compound, the “Plant response rating (0 to 100 scale), Kochia” value ([2]; 125 g ai/ha Preemergence) was 100, the “Ragweed plant response rating” value ([3]; 31 g ai/ha Postemergence) was 90 and the “Ragweed plant response rating” value ([3]; 125 g ai/ha Postemergence) was 90. For the same compound, the “Plant response rating, Barnyardgrass” value [4] was 95, the “Plant response rating … Goosegrass” value ([5]; 31 g ai/ha Preemergence) was 90 and the “Plant response rating … Goosegrass” value ([5]; 125 g ai/ha Preemergence) was 100. For the same compound, the “Foxtail, Giant plant response rating” value [6] was 50, the “Plant response rating (0 to 100 scale), Foxtail, Giant” value [6] was 80 and the “Kochia plant response rating” value [7] was 80. For the same compound, the “Plant response rating (0 to 100 scale), Kochia” value [7] was 90 and the “Plant response rating, Rice” value [8] was 75.

Cc1cc(C)c(N2CC/C(=N\O)C2=O)cc1NS(=O)(=O)C(F)(F)F [Compound 10, 1,1,1-trifluoro-N-[5-[3-(hydroxyimino)-2-oxo-1-pyrrolidinyl]-2,4-dimethylphenyl]methanesulfonamide] was tested, and the “Plant response rating … Corn” value ([1]; 31 g ai/ha Preemergence) was 30, the “Plant response rating … Corn” value ([1]; 125 g ai/ha Preemergence) was 90 and the “Plant response rating (0 to 100 scale), Kochia” value ([2]; 31 g ai/ha Preemergence) was 90. For the same compound, the “Plant response rating (0 to 100 scale), Kochia” value ([2]; 125 g ai/ha Preemergence) was 100, the “Ragweed plant response rating” value ([3]; 31 g ai/ha Postemergence) was 50 and the “Plant response rating (0 to 100 scale), Ragweed” value ([3]; 125 g ai/ha Postemergence) was 50. The “Plant response rating, Barnyardgrass” value [4] was 0, the “Plant response rating … Goosegrass” value ([5]; 31 g ai/ha Preemergence) was 80 and the “Plant response rating … Goosegrass” value ([5]; 125 g ai/ha Preemergence) was 100. The “Foxtail, Giant plant response rating” value [6] was 40, the “Plant response rating (0 to 100 scale), Foxtail, Giant” value [6] was 90 and the “Horseweed plant response rating” value [9] was 80. The “Plant response rating (0 to 100 scale), Horseweed” value [9] was 90, the “Kochia plant response rating” value [7] was 60 and the “Plant response rating (0 to 100 scale), Kochia” value [7] was 90. The “Plant response rating, Rice” value [8] was 0.

In the case of C#CCO/N=C1\CCN(c2cc(NS(=O)(=O)C(F)(F)F)c(C)cc2C)C1=O [Compound 13, N-[2,4-dimethyl-5-[2-oxo-3-[(2-propyn-1-yloxy)imino]-1-pyrrolidinyl]phenyl]-1,1,1-trifluoromethanesulfonamide], the “Plant response rating … Corn” value ([1]; 31 g ai/ha Preemergence) is reported as 40, the “Plant response rating … Corn” value ([1]; 125 g ai/ha Preemergence) is reported as 100 and the “Plant response rating (0 to 100 scale), Kochia” value ([2]; 31 g ai/ha Preemergence) is reported as 100. For the same compound, the “Plant response rating (0 to 100 scale), Kochia” value ([2]; 125 g ai/ha Preemergence) was 100, the “Ragweed plant response rating” value ([3]; 31 g ai/ha Postemergence) was 80 and the “Plant response rating (0 to 100 scale), Ragweed” value ([3]; 125 g ai/ha Postemergence) was 90. For the same compound, the “Plant response rating, Barnyardgrass” value [4] was 10, the “Plant response rating … Goosegrass” value ([5]; 31 g ai/ha Preemergence) was 90 and the “Plant response rating … Goosegrass” value ([5]; 125 g ai/ha Preemergence) was 100. The “Foxtail, Giant plant response rating” value [6] was 60, the “Plant response rating (0 to 100 scale), Foxtail, Giant” value [6] was 90 and the “Horseweed plant response rating” value [9] was 70. The “Plant response rating (0 to 100 scale), Horseweed” value [9] was 90, the “Kochia plant response rating” value [7] was 90 and the “Plant response rating (0 to 100 scale), Kochia” value [7] was 90. The “Plant response rating, Rice” value [8] was 35.

Cc1cc(C)c(N2CCC(O)C2=O)cc1NS(=O)(=O)C(F)(F)F (stereo not shown) [Compound 14] was tested, and the “Plant response rating … Corn” value ([1]; 31 g ai/ha Preemergence) was 10, the “Plant response rating … Corn” value ([1]; 125 g ai/ha Preemergence) was 100 and the “Plant response rating (0 to 100 scale), Kochia” value ([2]; 31 g ai/ha Preemergence) was 50. For the same compound, the “Plant response rating (0 to 100 scale), Kochia” value ([2]; 125 g ai/ha Preemergence) was 100, the “Ragweed plant response rating” value ([3]; 31 g ai/ha Postemergence) was 60 and the “Plant response rating (0 to 100 scale), Ragweed” value ([3]; 125 g ai/ha Postemergence) was 80. For the same compound, the “Plant response rating, Barnyardgrass” value [4] was 0, the “Plant response rating … Goosegrass” value ([5]; 31 g ai/ha Preemergence) was 90 and the “Plant response rating … Goosegrass” value ([5]; 125 g ai/ha Preemergence) was 100. The “Foxtail, Giant plant response rating” value [6] was 20, the “Plant response rating (0 to 100 scale), Foxtail, Giant” value [6] was 90 and the “Horseweed plant response rating” value [9] was 90. For the same compound, the “Plant response rating (0 to 100 scale), Horseweed” value [9] was 90, the “Kochia plant response rating” value [7] was 50 and the “Plant response rating (0 to 100 scale), Kochia” value [7] was 70. For the same compound, the “Plant response rating, Rice” value [8] was 25.
